How the values were obtained:
Format in all cases: cell-based
[1] = tested on: Aspergillus sp; experiment: Mold growth on treated Southern Yellow Pine wood samples, Aspergillus
Description: (§1) To determine the effectiveness of compositions containing an alkyl amine in combination with OIT and/or BBIT, such compositions were compared to compositions containing only an alkyl amine or compositions containing only OIT or BBIT. The efficacy of those compositions was shown by applying the compositions to Southern Yellow Pine (SYP) wood samples.
(§2) After the SYP samples were treated with the particular composition to be evaluated, the samples were placed onto a support in an extra depth Petri-dish.
(§3) A fungal spore suspension of two common mold species (Aspergillus and Fusarium) was spread on top of the wood sample. Fungal hyphal growth on the surface of samples was examined under the microscope once every week. The scale based on mycelial coverage of wood surface is as follows:
(§4) To evaluate the effectiveness of the compositions against common species of mold, compositions containing various levels of BBIT, OIT and C12-alkyl amine or a mixture of these components were tested on SYP wood blocks using the testing protocol discussed above. Specifically, compositions shown in Table 2A were applied to the wood blocks to determine anti-fungal efficacy of the compositions.
(§5) It is noted that compositions containing OIT and C12-alkyl amine were obtained by mixing compositions A0 and B0 in the recited ratio. Likewise, compositions containing BBIT and C12-alkyl amine were obtained by mixing compositions A0and C0.

[2] = tested on: Fusarium sp; experiment: Mold growth on treated Southern Yellow Pine wood samples, Fusarium
Description: as §1, §2, §3, §4, §5

[3] = tested on: two common mold species (Aspergillus and Fusarium); experiment: Mold control on treated wood, overall statements for both molds
Description: as §1, §2, §3, §4
It is noted that compositions containing OIT and C12-alkyl amine were obtained by mixing compositions A0 and B0 in the recited ratio. […]

CCCCn1sc2ccccc2c1=O [BBIT alone, N-n-butyl-1,2-benzisothiazolin-3-one]
Aspergillus sp mycelial coverage ([1]; ratio 1:0, 80 ppm, 1 week): 0 (0%) | Aspergillus sp mycelial coverage ([1]; ratio 1:0, 80 ppm, 2 weeks): 0 (0%) | Aspergillus sp mycelial coverage ([1]; ratio 1:0, 80 ppm, 3 weeks): 0 (0%) | Aspergillus sp mycelial coverage ([1]; ratio 1:0, 80 ppm, 4 weeks): 1 (<10%) | Fusarium sp mycelial coverage ([2]; ratio 1:0, 80 ppm, 1 week): 0 (0%) | Fusarium sp mycelial coverage ([2]; ratio 1:0, 80 ppm, 2 weeks): 0 (0%) | Fusarium sp mycelial coverage ([2]; ratio 1:0, 80 ppm, 3 weeks): 1 (<10%) | Fusarium sp mycelial coverage ([2]; ratio 1:0, 80 ppm, 4 weeks): 1 (<10%) | performance as a moldicide ([3]; concentration of 80 ppm): performed effectively as a moldicide

CCCCCCCCCCCCN(C)C [C12-alkyl amine alone]
Aspergillus sp mycelial coverage ([1]; Table 4, 1000 ppm, 1 week): 0 (0%) | Aspergillus sp mycelial coverage ([1]; Table 4, 1000 ppm, 2 weeks): 2 (˜10-30%) | Aspergillus sp mycelial coverage ([1]; Table 4, 1000 ppm, 3 weeks): 3 (˜30-60%) | Aspergillus sp mycelial coverage ([1]; Table 4, 1000 ppm, 4 weeks): 3 (˜30-60%) | Aspergillus sp mycelial coverage ([1]; ratio 0:1, 1000 ppm, 1 week): 0 (0%) | Aspergillus sp mycelial coverage ([1]; ratio 0:1, 1000 ppm, 2 weeks): 2 (˜10-30%) | Aspergillus sp mycelial coverage ([1]; ratio 0:1, 1000 ppm, 3 weeks): 3 (˜30-60%) | Aspergillus sp mycelial coverage ([1]; ratio 0:1, 1000 ppm, 4 weeks): 3 (˜30-60%) | performance as a moldicide ([1]; used alone, 1000 ppm, against Aspergillus): less effective | Fusarium sp mycelial coverage ([2]; Table 4, 1000 ppm, 1 week): 0, 0, 0, 0 (0%) | Fusarium sp mycelial coverage ([2]; Table 4, 1000 ppm, 2 weeks): 0, 0, 0, 0 (0%) | Fusarium sp mycelial coverage ([2]; Table 4, 1000 ppm, 3 weeks): 0, 0, 0, 0 (0%) | Fusarium sp mycelial coverage ([2]; Table 4, 1000 ppm, 4 weeks): 0, 0, 0, 0 (0%) | Fusarium sp mycelial coverage ([2]; ratio 0:1, 1000 ppm, 1 week): 0, 0, 0, 0 (0%) | Fusarium sp mycelial coverage ([2]; ratio 0:1, 1000 ppm, 2 weeks): 0, 0, 0, 0 (0%) | Fusarium sp mycelial coverage ([2]; ratio 0:1, 1000 ppm, 3 weeks): 0, 0, 0, 0 (0%) | Fusarium sp mycelial coverage ([2]; ratio 0:1, 1000 ppm, 4 weeks): 0, 0, 0, 0 (0%) | performance as a moldicide ([2]; used alone, 1000 ppm, against Fusarium): performed effectively as a moldicide

CCCCCCCCn1sccc1=O [OIT alone, 2-n-octyl-4-isothiazolin-3-one]
Aspergillus sp mycelial coverage ([1]; ratio 1:0, 100 ppm, 1 week): 0 (0%) | Aspergillus sp mycelial coverage ([1]; ratio 1:0, 100 ppm, 2 weeks): 0 (0%) | Aspergillus sp mycelial coverage ([1]; ratio 1:0, 100 ppm, 3 weeks): 1 (<10%) | Aspergillus sp mycelial coverage ([1]; ratio 1:0, 100 ppm, 4 weeks): 1 (<10%) | Fusarium sp mycelial coverage ([2]; ratio 1:0, 100 ppm, 1 week): 0, 0, 0, 0 (0%) | Fusarium sp mycelial coverage ([2]; ratio 1:0, 100 ppm, 2 weeks): 0, 0, 0, 0 (0%) | Fusarium sp mycelial coverage ([2]; ratio 1:0, 100 ppm, 3 weeks): 0, 0, 0, 0 (0%) | Fusarium sp mycelial coverage ([2]; ratio 1:0, 100 ppm, 4 weeks): 0, 0, 0, 0 (0%) | performance as a moldicide ([3]; concentration of 100 ppm): performed effectively as a moldicide

Source: patent US20080063723A1, “ISOTHIAZOLIN-3-ONE-CONTAINING ANTIMICROBIAL COMPOSITION” (priority 2006, published 2008)
